The record followed here is patent US20020081686A1 (priority 1999, published 2002).

The test relates to PPK2. To be noted: 1 mM Pi. An excerpt: PPK2 has been detected in crude cell extracts of K.pneumoniae and E. coli.

As for phosphate, the “inhibition of PPK2” value is “about 90%”.
